Measurements from PubChem BioAssay AID330 (DTP/NCI, 2004).
Values joined by “and” are separate entries in the source; they are usually repeats but may differ in a detail not shown here. Equal entries are not always repeated. Inconclusive results and toxic doses are left out. The calls were made as follows: active = survival T/C of 150% or more; inactive = T/C below 125% in these data. Numbered stars: 1 amine (or outer) side, 2 acyl side, 3 side chain; on linkers, the order of the positions; unused ones are H or OH. Bridge positions count the residues as written; N and C are the ends. Square brackets hold non-standard residues; d marks the D form. Peptide text beside a SMILES is read from it. I, II: the chains in the order shown. * marks the point of attachment. ξ: configuration not given here. Quinaldoyl(3-OH,6-OMe) = COc1ccc2nc(C(=O)*)c(O)cc2c1; X8 = CC(=O)OC1CC=NN([*:1])C1C(=O)[*:2]; ξNMeVal(3-OH) = CNC(C(=O)O)C(C)(C)O; X7 = O=C(C1C(O)CC=NN1[*:1])[*:2]; Sar = CNCC(=O)O

System: P388 leukemia ip, CD2F1 mice, survival T/C
Assay: NCI In Vivo Anticancer Drug Screen. Data for tumor model P388 Leukemia (intraperitoneal) in CD2F1 (CDF1) mice
Conditions: endpoint: median survival time, higher = longer survival
Summary of the method: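 Mice carrying the transplanted tumor received test compound or vehicle. Survival was recorded in each group, and the value is the treated-group measurement divided by that of the vehicle-treated control group.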

[1] = dose: 6.25 mg/kg/injection, schedule: Q01DX009 (ip), vehicle: saline with Tween-80
[2] = dose: 12.5 mg/kg/injection, schedule: Q01DX009 (ip), vehicle: saline with Tween-80
[3] = dose: 25.0 mg/kg/injection, schedule: Q01DX009 (ip), vehicle: saline with Tween-80
[4] = dose: 50.0 mg/kg/injection, schedule: Q01DX009 (ip), vehicle: saline with Tween-80
[5] = dose: 60.0 mg/kg/injection, schedule: Q01DX005 (ip), vehicle: Klucel (hydroxypropylcellulose) (HPC)
[6] = dose: 240.0 mg/kg/injection, schedule: Q01DX005 (ip), vehicle: Klucel (hydroxypropylcellulose) (HPC)
[7] = dose: 100.0 mg/kg/injection, schedule: Q01DX001 (ip), vehicle: saline with Tween-80
[8] = dose: 200.0 mg/kg/injection, schedule: Q01DX001 (ip), vehicle: saline with Tween-80
[9] = dose: 400.0 mg/kg/injection, schedule: Q01DX001 (ip), vehicle: saline with Tween-80
[10] = dose: 50.0 mg/kg/injection, schedule: Q01DX009 (ip), vehicle: Klucel (hydroxypropylcellulose) (HPC)
[11] = dose: 100.0 mg/kg/injection, schedule: Q01DX009 (ip), vehicle: Klucel (hydroxypropylcellulose) (HPC)
[12] = dose: 7.5 mg/kg/injection, schedule: Q01DX005 (ip), vehicle: Klucel (hydroxypropylcellulose) (HPC)
[13] = dose: 15.0 mg/kg/injection, schedule: Q01DX005 (ip), vehicle: Klucel (hydroxypropylcellulose) (HPC)
[14] = dose: 100.0 mg/kg/injection, schedule: Q04DX002 (ip), vehicle: saline
[15] = dose: 200.0 mg/kg/injection, schedule: Q04DX002 (ip), vehicle: saline
[16] = dose: 400.0 mg/kg/injection, schedule: Q04DX002 (ip), vehicle: saline
[17] = dose: 100.0 mg/kg/injection, schedule: Q01DX009 (ip), vehicle: saline with Tween-80
[18] = dose: 200.0 mg/kg/injection, schedule: Q01DX009 (ip), vehicle: saline with Tween-80

Measured: T/C

COc1ccc2nc(C(=O)NC3COC(=O)C(C(C)(C)O)N(C)C(=O)CN(C)C(=O)CNC(=O)C4C(OC(C)=O)CC=NN4C(=O)C(NC(=O)c4nc5ccc(OC)cc5cc4O)COC(=O)C(C(C)(C)O)N(C)C(=O)CN(C)C(=O)CNC(=O)C4C(O)CC=NN4C3=O)c(O)cc2c1 (stereo unspecified) (I: {Quinaldoyl(3-OH,6-OMe)}-S[X7]G[Sar][ξNMeVal(3-OH)] / II: {Quinaldoyl(3-OH,6-OMe)}-S[X8]G[Sar][ξNMeVal(3-OH)]; ester I:1-II:C, I:C-II:1; configuration not given here)
inactive: dose: 6.25 micrograms/kg/injection, schedule: Q01DX005 (ip), vehicle: DMSO 108 % of control | dose: 12.5 micrograms/kg/injection, schedule: Q01DX005 (ip), vehicle: DMSO 112 % of control | dose: 25.0 micrograms/kg/injection, schedule: Q01DX005 (ip), vehicle: DMSO 118 % of control | dose: 50.0 micrograms/kg/injection, schedule: Q01DX005 (ip), vehicle: DMSO 119 % of control | dose: 100.0 micrograms/kg/injection, schedule: Q01DX005 (ip), vehicle: DMSO 123 % of control

O=c1[nH]c2c([N+](=O)[O-])cc(Cl)cc2nc1/C=C(\O)c1ccc(F)cc1
inactive: dose: 60.0 mg/kg/injection, schedule: Q01DX005 (ip), vehicle: saline with Tween-80 101 % of control | dose: 120.0 mg/kg/injection, schedule: Q01DX005 (ip), vehicle: saline with Tween-80 102 % of control | dose: 240.0 mg/kg/injection, schedule: Q01DX005 (ip), vehicle: saline with Tween-80 106 % of control

CCCCN(CCCC)CC(O)c1ccc2cc(Cl)cc(Cl)c2n1 (stereo unspecified)
inactive: [1] 90 % of control | [2] 100 % of control | [3] 100 % of control

CCC(c1ccc2cc(OC)ccc2c1)C(C)(C)C(=O)F (stereo unspecified)
inactive: dose: 25.0 mg/kg/injection, schedule: Q04DX003 (ip), vehicle: saline with Tween-80 104 % of control | dose: 33.0 mg/kg/injection, schedule: Q01DX009 (ip), vehicle: saline with Tween-80 104 % of control | [4] 104 % of control | dose: 50.0 mg/kg/injection, schedule: Q04DX003 (ip), vehicle: saline with Tween-80 104 % of control | dose: 75.0 mg/kg/injection, schedule: Q01DX009 (ip), vehicle: saline with Tween-80 122 % of control | dose: 100.0 mg/kg/injection, schedule: Q04DX003 (ip), vehicle: saline with Tween-80 87 % of control

CCOC(=O)C(=O)C1Cc2ccc3ccc(OC)cc3c2C1=O (stereo unspecified)
inactive: dose: 12.5 mg/kg/injection, schedule: Q01DX009 (ip), vehicle: distilled water + Tween-80 109 % of control | dose: 25.0 mg/kg/injection, schedule: Q01DX009 (ip), vehicle: distilled water + Tween-80 112 % of control | dose: 50.0 mg/kg/injection, schedule: Q01DX009 (ip), vehicle: distilled water + Tween-80 102 % of control | dose: 100.0 mg/kg/injection, schedule: Q01DX009 (ip), vehicle: distilled water + Tween-80 94 % of control | dose: 200.0 mg/kg/injection, schedule: Q01DX009 (ip), vehicle: distilled water + Tween-80 102 % of control

Cn1cnc2c1c(=O)n(N)c(=O)n2C
inactive: [5] 102 % of control | dose: 120.0 mg/kg/injection, schedule: Q01DX005 (ip), vehicle: Klucel (hydroxypropylcellulose) (HPC) 98 % of control | [6] 92 % of control

COc1cccc2c1C(=O)c1c(O)c3c(c(O)c1C2=O)[C@@H](OC)[C@@](O)(C(=O)CO)C[C@@H]3OC1CC(N)C(O)C(C)O1 (stereo partly specified)
inactive: dose: 3.13 mg/kg/injection, schedule: Q04DX003 (ip), vehicle: water 108 % of control and 123 % of control | dose: 12.5 mg/kg/injection, schedule: Q04DX003 (ip), vehicle: water 115 % of control | dose: 25.0 mg/kg/injection, schedule: Q04DX003 (ip), vehicle: water 106 % of control and 115 % of control | dose: 50.0 mg/kg/injection, schedule: Q04DX003 (ip), vehicle: water 104 % of control

Cc1ccc(NC(=S)NC2C(=O)Nc3ccccc32)cc1 (stereo unspecified)
inactive: [7] 92 % of control | [8] 93 % of control | [9] 87 % of control

CC(C)n1cc(C(C)(C)C)nc1SSc1nc(C(C)(C)C)cn1C(C)C
inactive: dose: 50.0 mg/kg/injection, schedule: Q01DX005 (ip), vehicle: Klucel (hydroxypropylcellulose) (HPC) 100 % of control | dose: 100.0 mg/kg/injection, schedule: Q01DX005 (ip), vehicle: Klucel (hydroxypropylcellulose) (HPC) 96 % of control

CCCCN(CCCC)C(Cl)=Nc1ccccc1
inactive: dose: 25.0 mg/kg/injection, schedule: Q01DX009 (ip), vehicle: Klucel (hydroxypropylcellulose) (HPC) 119 % of control | [10] 120 % of control | [11] 112 % of control

CCOc1c(N=Nc2ccc([N+](=O)[O-])cc2)c(C)nn1C(=S)SC
inactive: dose: 1.87 mg/kg/injection, schedule: Q01DX005 (ip), vehicle: Klucel (hydroxypropylcellulose) (HPC) 108 % of control | dose: 3.75 mg/kg/injection, schedule: Q01DX005 (ip), vehicle: Klucel (hydroxypropylcellulose) (HPC) 105 % of control | [12] 105 % of control and 89 % of control | [13] 97 % of control | [5] 90 % of control | [6] 87 % of control

NNCCO
inactive: dose: 3.12 mg/kg/injection, schedule: Q01DX009 (ip), vehicle: saline with Tween-80 108 % of control | [1] 99 % of control and 100 % of control | [2] 99 % of control and 103 % of control | [3] 100 % of control and 104 % of control | [4] 100 % of control

Nc1ccc(Cl)cc1C(=O)N1CCN(c2ccc([N+](=O)[O-])cn2)CC1
inactive: [12] 99 % of control | [13] 92 % of control | dose: 30.0 mg/kg/injection, schedule: Q01DX005 (ip), vehicle: Klucel (hydroxypropylcellulose) (HPC) 93 % of control

CCOc1cnco1
inactive: [14] 99 % of control | [15] 100 % of control | [16] 112 % of control

CCOC(=O)C1=C(c2ccccc2)Nc2ccccc2[S+]1C (stereo unspecified)
inactive: dose: 15.0 mg/kg/injection, schedule: Q01DX005 (ip), vehicle: saline 99 % of control | dose: 30.0 mg/kg/injection, schedule: Q01DX005 (ip), vehicle: saline 98 % of control | dose: 60.0 mg/kg/injection, schedule: Q01DX005 (ip), vehicle: saline 98 % of control and 96 % of control

COc1ccc(-[n+]2noc(N)n2)cc1
inactive: dose: 3.13 mg/kg/injection, schedule: Q01DX009 (ip), vehicle: water 99 % of control | dose: 6.25 mg/kg/injection, schedule: Q01DX009 (ip), vehicle: water 102 % of control | dose: 12.5 mg/kg/injection, schedule: Q01DX009 (ip), vehicle: water 108 % of control | dose: 25.0 mg/kg/injection, schedule: Q01DX009 (ip), vehicle: water 116 % of control | dose: 50.0 mg/kg/injection, schedule: Q01DX009 (ip), vehicle: water 120 % of control

NC(=O)NCCSc1ccc(SCCNC(N)=O)nn1
inactive: [10] 109 % of control | [11] 100 % of control | dose: 200.0 mg/kg/injection, schedule: Q01DX009 (ip), vehicle: Klucel (hydroxypropylcellulose) (HPC) 98 % of control | dose: 400.0 mg/kg/injection, schedule: Q01DX009 (ip), vehicle: Klucel (hydroxypropylcellulose) (HPC) 90 % of control

Nc1ccccc1N=C(CC(=O)c1ccccc1)C(F)(F)F
inactive: [14] 99 % of control | [15] 101 % of control | [16] 97 % of control

O=C(/C=C/c1ccc(Cl)cc1)c1ccccc1
inactive: [4] 105 % of control | [17] 103 % of control | [18] 92 % of control

CN1CCCC(Cc2ccccc2)S1(=O)=O (stereo unspecified)
inactive: [7] 98 % of control | [8] 99 % of control | [9] 98 % of control

COC(=O)N1CCc2c([nH]oc2=O)C1
inactive: dose: 50.0 mg/kg/injection, schedule: Q01DX009 (ip), vehicle: saline 90 % of control | dose: 100.0 mg/kg/injection, schedule: Q01DX009 (ip), vehicle: saline 88 % of control | dose: 200.0 mg/kg/injection, schedule: Q01DX009 (ip), vehicle: saline 89 % of control

CCCCCCC(=O)/C=C/c1ccc([N+](=O)[O-])cc1
inactive: [4] 99 % of control | [17] 99 % of control | [18] 92 % of control
